From ChEMBL document CHEMBL4422676, “Fragment-based screening of programmed death ligand 1 (PD-L1)” (Bioorg Med Chem Lett, 2019)
pKd: −log10 of the molar value.

What was measured:
[1] = system: Programmed cell death 1 ligand 1 (Homo sapiens), Q9NZQ7 [UNDEFINED MUTATION]; assay: Displacement of 15N-labelled PD1 from human 15N-labelled 6His-tagged PDL1 IgV domain H140E mutant (18 to 134 residues) at 800 uM assessed as rescue signal intensity by HMQC spectra analysis
[2] = biological target: Programmed cell death 1 ligand 1 (Homo sapiens, UniProt Q9NZQ7, H140E); assay: Binding affinity to human 15N-labelled 6His-tagged PDL1 IgV domain H140E mutant (18 to 134 residues) expressed in Escherichia coli BL21 (DE3) by 1D-1H NMR spectroscopy; conditions: for pKd: read-out: Kd
Chain of Programmed cell death 1 ligand 1 (Q9NZQ7 whole entry, looked up, stated change not applied, the tested form may be a part): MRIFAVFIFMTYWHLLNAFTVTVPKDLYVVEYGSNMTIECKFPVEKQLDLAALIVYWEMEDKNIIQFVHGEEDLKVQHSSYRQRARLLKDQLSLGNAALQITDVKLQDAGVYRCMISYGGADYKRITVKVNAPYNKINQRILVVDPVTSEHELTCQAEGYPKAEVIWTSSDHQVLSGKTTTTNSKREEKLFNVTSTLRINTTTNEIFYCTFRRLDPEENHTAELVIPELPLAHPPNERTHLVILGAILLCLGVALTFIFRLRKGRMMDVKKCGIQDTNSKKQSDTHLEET

[3] = system: Programmed cell death 1 ligand 1 (Homo sapiens), Q9NZQ7 [UNDEFINED MUTATION]; assay: Displacement of 15N-labelled PD1 from human 15N-labelled 6His-tagged PDL1 IgV domain H140E mutant (18 to 134 residues) at 2 mM assessed as rescue signal intensity by HMQC spectra analysis

Chain of Programmed cell death 1 ligand 1 (Homo sapiens), Q9NZQ7 [UNDEFINED MUTATION] (Q9NZQ7 whole entry, looked up, stated change not applied, the tested form may be a part): as above

Cc1nc2cc(-c3ccccc3)ccc2o1
Activity [1]: 1 to 15% | Kd [2]: Nd(Insoluble)

COc1ccc2nc(NCc3cccnc3)sc2c1
Activity [1]: 1 to 15% | pKd [2]: 2.54

Oc1ncnc2scc(-c3ccccc3)c12
Activity [3]: 75% | Activity [1]: > 15% | Kd [2]: Nd(Insoluble)

Cc1cc(Nc2ccc(N3CCCC3)cc2)ncn1
Activity [1]: 1 to 15% | pKd [2]: 2.52

CC(=O)Oc1ccc2c(c1)cc(C)n2C
Activity [1]: > 15% | Kd [2]: Nd(Insoluble)

COC(=O)c1[nH]cc(-c2ccccc2F)c1N
Activity [1]: 1 to 15% | Kd [2]: Nd(Insoluble)

CNCc1ccc(-c2cc(Cl)cc(Cl)c2)o1
Activity [1]: > 15% | pKd [2]: 2.72

CCN(CC)C(=O)c1sc2ccccc2c1Cl
Activity [1]: > 15% | pKd [2]: 2.60

Cc1sc(N)nc1-c1ccc2c(c1)OCCO2
Activity [1]: > 15% | pKd [2]: 2.92
